According to US10857246B2, “Nuclear imaging and radiotherapeutics agents targeting carbonic anhydrase IX and uses thereof” (THE JOHNS HOPKINS UNIVERSITY, priority 2015, dated 2020):
Where “and” joins values, the source holds several entries; their conditions need not be identical. Equal values may be shown once.

Tested on: CAIX-expressing SK-RC-52 tumors
Assay: Biodistribution in mice bearing SK-RC-52 xenografts
Format: in vivo
Settings: for Biodistribution Kidney / Biodistribution Muscle / Biodistribution Small intestine / Tumor/Kidney ratio / Tumor/Muscle ratio / Biodistribution Bladder / Biodistribution Blood / Biodistribution Brain / Biodistribution Fat / Biodistribution Heart / Biodistribution Liver / Biodistribution Lung / Biodistribution Pancreas / Biodistribution Spleen / Biodistribution Stomach / Biodistribution Tumor / Tumor/Blood ratio: 740 kBq i.v.
Method: Animal experiments were performed in accordance with protocols approved by the Johns Hopkins Animal Care and Use Committee (ACUC). Six-week-old female NOD/SCID mice were purchased from the Animal Resource Core of the Sidney Kimmel Comprehensive Cancer Center of Johns Hopkins and were subcutaneously injected in the lower left flank or upper right flank with 1×10^6 SK-RC-52 cells in RPMI 1640 GlutaMAX™ media (Life Technologies, Frederick, Md.) supplemented with 1% fetal bovine serum (FBS). Mice were monitored for tumor size and used for SPECT/CT imaging when the size of the tumor reached 100 mm^3.
Mice bearing SK-RC-52 xenografts at lower left flank were injected intravenously with 740 kBq (20 μCi) of [^111In]XYIMSR-01, or [^177Lu]XYIMSR-01 in 200 μL of PBS. For competitive blocking, same tumor bearing mice were injected with 740 kBq (20 μCi) of [^111In]XYIMSR-01 and 200 nmole of 8 in 200 μL of PBS. At 1 h, 4 h, 8 h, 24 h and 48 h post-injection, mice were sacrificed by cervical dislocation and the blood was immediately collected by cardiac puncture. Heart, lungs, pancreas, spleen, fat, brain, muscle, small intestines, liver, stomach, kidney, urinary bladder, and tumor were collected. Each organ was weighed and the tissue radioactivity was measured with an automated gamma counter (1282 Compugamma CS, Pharmacia/LKBNuclear, Inc., Mt. Waverly, Vic. Australia). The percentage of injected dose per gram of tissue (% ID/g) was calculated by comparison with samples of a standard dilution of the initial dose. All measurements were corrected for radioactive decay.
Data were expressed as mean±standard deviation (SD). Prism software (GraphPAD, San Diego, Calif.) was used to determine statistical significance. Statistical significance was calculated using a paired t test. P-values <0.0001 were considered significant.
Mice bearing SK-RC-52 xenografts within the lower left flank were injected intravenously with 740 kBq (20 μCi) of [Al^18F]XYIMSR-04 in 200 μL of PBS. At specific 1 hour time point mentioned in the paper, mice (n=5) were sacrificed by cervical dislocation and the blood was immediately collected by cardiac puncture. Heart, lungs, pancreas, spleen, fat, brain, muscle, small intestines, liver, bone, stomach, kidney, urinary bladder, and tumor were collected. Each organ was weighed and the tissue radioactivity was measured with an automated gamma counter (1282 Compugamma CS, Pharmacia/LKBNuclear, Inc., Mt. Waverly, Vic. Australia). The percentage of injected dose per gram of tissue (% ID/g) was calculated by comparison with samples of a standard dilution of the initial dose. All measurements were corrected for radioactive decay. Data were expressed as mean±standard deviation (SD). Prism software (GraphPAD, San Diego, Calif.) was used to determine statistical significance. Statistical significance was calculated using a paired t test. P-values <0.0001 were considered significant.
Mice bearing SK-RC-52 xenografts within the upper right flank were injected intravenously with 740 kBq (20 μCi) of [^64Cu]XYIMSR-06 in 200 μL of PBS. For in vivo competition (binding specificity) studies, tumor-bearing mice were injected with 740 kBq (20 μCi) of [^64Cu]XYIMSR-06 and 200 nmole of 8 in 200 μL of PBS concurrently. At specific times after injection (1 h, 4 h, 8 h and 24 h), mice (n=5) were sacrificed by cervical dislocation with blood immediately collected by cardiac puncture. Heart, lungs, pancreas, spleen, fat, brain, muscle, small intestines, liver, stomach, kidney, urinary bladder, and tumor were also collected. Each organ was weighed and the tissue radioactivity was measured with an automated gamma counter (1282 Compugamma CS, Pharmacia/LKBNuclear, Inc., Mt. Waverly, Vic. Australia). The percentage of injected dose per gram of tissue (% ID/g) was calculated by comparison with samples of a standard dilution of the initial dose. All measurements were corrected for radioactive decay. Data were expressed as mean±standard deviation (SD). […]

CC(CCC(=O)N[C@@H](CC(=O)N[C@@H](CC(=O)N[C@@H](CCCCn1cc(CCCC(=O)Nc2nnc(S(N)(=O)=O)s2)nn1)C(=O)NCCOCCOCCNC(=O)CN1CCN2CCN(CC1)CC(=O)[O][Al]([18F])[O]C(=O)C2)C(=O)O)C(=O)O)(c1ccc(O)cc1)c1ccc(O)cc1 [[Al^18F]XYIMSR-04]
Biodistribution Kidney (1 h post-injection): 50.84 ± 2.65 % ID/g | Biodistribution Muscle (1 h post-injection): 1.74 ± 0.58 % ID/g | Biodistribution Small intestine (1 h post-injection): 9.59 ± 1.04 % ID/g | Tumor/Kidney ratio (1 h post-injection): 0.28 and 0.28 ± 0.03 | Tumor/Muscle ratio (1 h post-injection): 9.74 and 9.74 ± 2.9

CC(CCC(=O)N[C@@H](CC(=O)N[C@@H](CC(=O)N[C@@H](CCCCn1cc(CCCC(=O)Nc2nnc(S(N)(=O)=O)s2)nn1)C(=O)NCCOCCOCCNC(=S)Nc1ccc(CC2CN(CC(=O)[O-])CCN(CC(=O)[O-])CCN2CC(=O)O)cc1)C(=O)O)C(=O)O)(c1ccc(O)cc1)c1ccc(O)cc1.[64Cu+2] (some centres unmarked) [[^64Cu]XYIMSR-06]
Biodistribution Bladder (1 h post-injection): 11.12 % ID/g | Biodistribution Blood (1 h post-injection): 0.66 % ID/g | Biodistribution Brain (1 h post-injection): 1.46 % ID/g | Biodistribution Fat (1 h post-injection): 0.80 % ID/g | Biodistribution Heart (1 h post-injection): 3.41 % ID/g | Biodistribution Kidney (1 h post-injection): 33.65 % ID/g | Biodistribution Liver (1 h post-injection): 3.25 % ID/g | Biodistribution Lung (1 h post-injection): 25.52 % ID/g | Biodistribution Muscle (1 h post-injection): 1.28 % ID/g | Biodistribution Pancreas (1 h post-injection): 2.94 % ID/g | Biodistribution Small intestine (1 h post-injection): 7.35 % ID/g | Biodistribution Spleen (1 h post-injection): 0.36 % ID/g | Biodistribution Stomach (1 h post-injection): 14.80 % ID/g | Biodistribution Tumor (1 h post-injection): 14.47 % ID/g | Tumor/Kidney ratio (1 h post-injection): 0.4 | Biodistribution Bladder (4 h post-injection): 17.05 % ID/g | Biodistribution Blood (4 h post-injection): 0.33 % ID/g | Biodistribution Brain (4 h post-injection): 0.29 % ID/g | Biodistribution Fat (4 h post-injection): 0.52 % ID/g | Biodistribution Heart (4 h post-injection): 1.78 % ID/g | Biodistribution Kidney (4 h post-injection): 19.99 % ID/g | Biodistribution Liver (4 h post-injection): 2.18 % ID/g | Biodistribution Lung (4 h post-injection): 12.03 % ID/g | Biodistribution Muscle (4 h post-injection): 0.70 % ID/g | Biodistribution Pancreas (4 h post-injection): 1.36 % ID/g | Biodistribution Small intestine (4 h post-injection): 4.15 % ID/g | Biodistribution Spleen (4 h post-injection): 0.24 % ID/g | Biodistribution Stomach (4 h post-injection): 8.19 % ID/g | Biodistribution Tumor (4 h post-injection): 19.31 % ID/g | Tumor/Blood ratio (4 h post-injection): 57.7 | Tumor/Kidney ratio (4 h post-injection): 1.0 | Tumor/Muscle ratio (4 h post-injection): 29.4 | Biodistribution Bladder (8 h + block (200 nmole of 8)): 1.45 % ID/g | Biodistribution Blood (8 h + block (200 nmole of 8)): 0.08 % ID/g | Biodistribution Brain (8 h + block (200 nmole of 8)): 0.04 % ID/g | Biodistribution Fat (8 h + block (200 nmole of 8)): 0.05 % ID/g | Biodistribution Heart (8 h + block (200 nmole of 8)): 0.16 % ID/g | Biodistribution Kidney (8 h + block (200 nmole of 8)): 1.82 % ID/g | Biodistribution Liver (8 h + block (200 nmole of 8)): 0.55 % ID/g | Biodistribution Lung (8 h + block (200 nmole of 8)): 0.77 % ID/g | Biodistribution Muscle (8 h + block (200 nmole of 8)): 0.05 % ID/g | Biodistribution Pancreas (8 h + block (200 nmole of 8)): 0.14 % ID/g | Biodistribution Small intestine (8 h + block (200 nmole of 8)): 0.38 % ID/g | Biodistribution Spleen (8 h + block (200 nmole of 8)): 0.14 % ID/g | Biodistribution Stomach (8 h + block (200 nmole of 8)): 0.69 % ID/g | Biodistribution Tumor (8 h + block (200 nmole of 8)): 2.39 % ID/g | Tumor/Blood ratio (8 h + block (200 nmole of 8)): 32.0 | Tumor/Kidney ratio (8 h + block (200 nmole of 8)): 1.3 | Tumor/Muscle ratio (8 h + block (200 nmole of 8)): 53.0 | Biodistribution Bladder (8 h post-injection): 7.43 % ID/g | Biodistribution Blood (8 h post-injection): 0.13 % ID/g | Biodistribution Brain (8 h post-injection): 0.24 % ID/g | Biodistribution Fat (8 h post-injection): 0.28 % ID/g | Biodistribution Heart (8 h post-injection): 0.65 % ID/g | Biodistribution Kidney (8 h post-injection): 8.14 % ID/g | Biodistribution Liver (8 h post-injection): 0.99 % ID/g | Biodistribution Lung (8 h post-injection): 4.64 % ID/g | Biodistribution Muscle (8 h post-injection): 0.21 % ID/g | Biodistribution Pancreas (8 h post-injection): 0.47 % ID/g | Biodistribution Small intestine (8 h post-injection): 1.98 % ID/g | Biodistribution Spleen (8 h post-injection): 0.18 % ID/g | Biodistribution Stomach (8 h post-injection): 4.02 % ID/g | Biodistribution Tumor (8 h post-injection): 16.74 % ID/g | All other tumor/organ ratios (24 h): > 10.0 | Biodistribution Bladder (24 h + block (200 nmole of 8)): 0.45 % ID/g | Biodistribution Blood (24 h + block (200 nmole of 8)): 0.01 % ID/g | Biodistribution Brain (24 h + block (200 nmole of 8)): 0.02 % ID/g | Biodistribution Fat (24 h + block (200 nmole of 8)): 0.01 % ID/g | Biodistribution Heart (24 h + block (200 nmole of 8)): 0.08 % ID/g | Biodistribution Kidney (24 h + block (200 nmole of 8)): 0.48 % ID/g | Biodistribution Liver (24 h + block (200 nmole of 8)): 0.42 % ID/g | Biodistribution Lung (24 h + block (200 nmole of 8)): 0.29 % ID/g | Biodistribution Muscle (24 h + block (200 nmole of 8)): 0.04 % ID/g | Biodistribution Pancreas (24 h + block (200 nmole of 8)): 0.07 % ID/g | Biodistribution Small intestine (24 h + block (200 nmole of 8)): 0.19 % ID/g | Biodistribution Spleen (24 h + block (200 nmole of 8)): 0.11 % ID/g | Biodistribution Stomach (24 h + block (200 nmole of 8)): 0.29 % ID/g | Biodistribution Tumor (24 h + block (200 nmole of 8)): 1.20 % ID/g | Tumor/Blood ratio (24 h + block (200 nmole of 8)): 27.1 | Tumor/Kidney ratio (24 h + block (200 nmole of 8)): 2.4 | Tumor/Muscle ratio (24 h + block (200 nmole of 8)): 49.0 | Biodistribution Bladder (24 h post-injection): 0.34 % ID/g | Biodistribution Blood (24 h post-injection): 0.00 % ID/g | Biodistribution Brain (24 h post-injection): 0.13 % ID/g | Biodistribution Fat (24 h post-injection): 0.03 % ID/g | Biodistribution Heart (24 h post-injection): 0.12 % ID/g | Biodistribution Kidney (24 h post-injection): 0.90 % ID/g | Biodistribution Liver (24 h post-injection): 0.38 % ID/g | Biodistribution Lung (24 h post-injection): 1.27 % ID/g | Biodistribution Muscle (24 h post-injection): 0.02 % ID/g | Biodistribution Pancreas (24 h post-injection): 0.21 % ID/g | Biodistribution Small intestine (24 h post-injection): 0.47 % ID/g | Biodistribution Spleen (24 h post-injection): 0.09 % ID/g | Biodistribution Stomach (24 h post-injection): 0.65 % ID/g | Biodistribution Tumor (24 h post-injection): 6.2 % ID/g and 6.23 % ID/g | Tumor/Blood ratio (24 h post-injection): 142.6 | Tumor/Muscle ratio (24 h post-injection): 261.3 | Tumor uptake on co-injection of 200 nmole of 8 (mouse, in vivo): blocked tumor uptake | Radiotracer uptake within liver (within 24 h): no significant radiotracer uptake within liver
